ChEMBL document CHEMBL3588854, “Synthesis of 5-isoxazol-3-yl-pyrimidine nucleosides as potential antileishmanial agents” (Bioorg Med Chem Lett, 2015)
The source made the active and inactive calls. No cut-off for these calls is given here.

tested on: Leishmania donovani; test: Antileishmanial activity against amastigote stage of Leishmania donovani MHOM/ET/67/HU3 infected in mouse RAW264.7 cells assessed as inhibition of parasite growth after 48 hrs by SYBR green I incorporation assay; type: functional, organism-based; details: not given

| SMILES | growth inhibition (GI) |
| --- | --- |
| CC(=O)OC[C@H]1O[C@@H](n2cc(-c3cc(-c4ccc(Br)cc4)on3)c(=O)[nH]c2=O)C[C@@H]1OC(C)=O | inactive |
| CC(=O)OC[C@H]1O[C@@H](n2cc(-c3cc(CBr)on3)c(=O)[nH]c2=O)C[C@@H]1OC(C)=O | inactive |
| CC(=O)OC[C@H]1O[C@@H](n2cc(-c3cc(-c4ccccc4)on3)c(=O)[nH]c2=O)[C@H](OC(C)=O)[C@@H]1OC(C)=O | inactive |
| CC(=O)OC[C@H]1O[C@@H](n2cc(-c3cc(-c4ccccc4)on3)c(=O)[nH]c2=O)C[C@@H]1N=[N+]=[N-] | inactive |
| CC(=O)OC[C@@H]1C=C[C@H](n2cc(-c3cc(-c4ccccc4)on3)c(=O)[nH]c2=O)O1 | inactive |
| CC(=O)OC[C@H]1O[C@@H](n2cc(-c3cc(-c4ccccc4)on3)c(=O)[nH]c2=O)C[C@@H]1OC(C)=O | inactive |

same assay, conditions: MHOM/ET/67/HU3, RAW264.7, 48 h

| SMILES | IC50 |
| --- | --- |
| CCCCCCCCCCCCCCCCOP(=O)([O-])OCC[N+](C)(C)C [MILTEFOSINE] | 5750 nM |
| CCCCCCCCc1cc(-c2cn([C@H]3C[C@H](O)[C@@H](CO)O3)c(=O)[nH]c2=O)no1 | > 12500 nM |
| CCCCCCCCc1cc(-c2cn([C@H]3C[C@H](OC(C)=O)[C@@H](COC(C)=O)O3)c(=O)[nH]c2=O)no1 | 20900 nM |
| Cc1ccc(-c2cc(-c3cn([C@H]4C[C@H](O)[C@@H](CO)O4)c(=O)[nH]c3=O)no2)cc1 | 610 nM |
| CC(=O)OC[C@H]1O[C@@H](n2cc(-c3cc(CO)on3)c(N)nc2=O)C[C@@H]1OC(C)=O | 3130 nM |
| CC(=O)OC[C@H]1O[C@@H](n2cc(-c3cc(-c4ccc(F)cc4)on3)c(=O)[nH]c2=O)C[C@@H]1N=[N+]=[N-] | > 12500 nM |
| O=c1[nH]c(=O)n([C@H]2C[C@H](O)[C@@H](CO)O2)cc1-c1cc(CO)on1 | 730 nM |
| CC(=O)OC[C@H]1O[C@@H](n2cc(-c3cc(CO)on3)c(=O)[nH]c2=O)C[C@@H]1N=[N+]=[N-] | > 12500 nM |
| CC(=O)OC[C@H]1O[C@@H](n2cc(-c3cc(-c4ccc(C)cc4)on3)c(=O)[nH]c2=O)C[C@@H]1OC(C)=O | 1700 nM |
| O=c1[nH]c(=O)n([C@H]2C[C@H](O)[C@@H](CO)O2)cc1-c1cc(-c2ccc(F)cc2)on1 | 580 nM |
| O=c1[nH]c(=O)n([C@@H]2O[C@H](CO)[C@@H](O)[C@H]2O)cc1-c1cc(-c2ccc(F)cc2)on1 | 1470 nM |
| CC(=O)OC[C@H]1O[C@@H](n2cc(-c3cc(CO)on3)c(=O)[nH]c2=O)C[C@@H]1OC(C)=O | 3390 nM |
| CC(=O)OC[C@H]1O[C@@H](n2cc(-c3cc(-c4ccc(F)cc4)on3)c(=O)[nH]c2=O)C[C@@H]1OC(C)=O | 700 nM |
| O=c1[nH]c(=O)n([C@H]2C[C@H](O)[C@@H](CO)O2)cc1-c1cc(-c2ccccc2)on1 | 760 nM |
| Nc1nc(=O)n([C@H]2C[C@H](O)[C@@H](CO)O2)cc1-c1cc(-c2ccccc2)on1 | 610 nM |
| [N-]=[N+]=N[C@H]1C[C@H](n2cc(-c3cc(CO)on3)c(=O)[nH]c2=O)O[C@@H]1CO | 490 nM |
| C[C@@H]1[C@H](O)[C@@H](C)/C=C/C=C/C=C/C=C/C=C/C=C/C=C/[C@H](O[C@@H]2O[C@H](C)[C@@H](O)[C@H](N)[C@@H]2O)C[C@@H]2O[C@](O)(C[C@@H](O)C[C@@H](O)[C@H](O)CC[C@@H](O)C[C@@H](O)CC(=O)O[C@H]1C)C[C@H](O)[C@H]2C(=O)O [AMPHOTERICIN B] | 310 nM |
| CC(=O)OC[C@H]1O[C@@H](n2cc(-c3cc(-c4ccccc4)on3)c(N)nc2=O)C[C@@H]1OC(C)=O | 1610 nM |
| CC(=O)OC[C@H]1O[C@@H](n2cc(-c3cc(-c4ccc(F)cc4)on3)c(=O)[nH]c2=O)[C@H](OC(C)=O)[C@@H]1OC(C)=O | 780 nM |
| O=c1[nH]c(=O)n([C@H]2C=C[C@@H](CO)O2)cc1-c1cc(-c2ccccc2)on1 | 4560 nM |
